What was measured:
Assay type in all cases: in vivo
Anthonomus grandis = assay: Boll weevil (Anthonomus grandis) egg and larval mortality, microtiter plate diet test; details: 120 h, egg and larval mortality after 5 days, read-out: mortality in comparison with untreated controls
Description: For evaluating control of boll weevil, the test unit consisted of 96-well-microtiter plates containing an insect diet and 5-10 A. grandis eggs.
The compounds were formulated using a solution containing 75% v/v water and 25% v/v DMSO. Different concentrations of formulated compounds were sprayed onto the insect diet at 5 μl, using a custom-built micro atomizer, at two replications.
After application, microtiter plates were incubated at about 25±1° C. and about 75±5% relative humidity for 5 days. Egg and larval mortality were then visually assessed.

Myzus persicae = assay: Green Peach Aphid (Myzus persicae), mixed life stages, systemic artificial diet test; details: 72 h, aphid mortality after 3 days, read-out: mortality in comparison with untreated controls
Text: For evaluating control of Green Peach Aphid through systemic means the test unit consisted of 96-well-microtiter plates containing liquid artificial diet under an artificial membrane. The compounds were formulated using a solution containing 75% v/v water and 25% v/v DMSO. Different concentrations of formulated compounds were pipetted into the aphid diet, using a custom-built pipette, at two replications. After application, 5-8 adult aphids were placed on the artificial membrane inside the microtiter plate wells. The aphids were then allowed to suck on the treated aphid diet and incubated at about 23±1° C. and about 50±5% relative humidity for 3 days. Aphid mortality and fecundity was then visually assessed.

Heliothis virescens = assay: Tobacco Budworm (Heliothis virescens) egg and larval mortality, microtiter plate diet test; details: 120 h, egg and larval mortality after 5 days, read-out: mortality in comparison with untreated controls
Description: For evaluating control of Tobacco Budworm, the test unit consisted of 96-well-microtiter plates containing an insect diet and 15-25 H. virescens eggs. The compounds were formulated using a solution containing 75% v/v water and 25% v/v DMSO. Different concentrations of formulated compounds were sprayed onto the insect diet at 10 μl, using a custom-built micro atomizer, at two replications. After application, microtiter plates were incubated at about 28±1° C. and about 80±5% relative humidity for 5 days. Egg and larval mortality was then visually assessed.

Spodoptera eridania = assay: Southern Armyworm (Spodoptera eridania), 2nd instar larvae, on sprayed lima bean plants, comparative experiment; details: 96 h, 4 days after treatment, read-out: mortality in comparison with untreated controls
Description: The active compounds were formulated by a Tecan liquid handler in 100% cyclohexanone as a 10,000-ppm solution supplied in tubes. The 10,000-ppm solution was serially diluted in 100% cyclohexanone to make interim solutions. These served as stock solutions for which final dilutions were made by the Tecan in 50% acetone:50% water (v/v) into 10 or 20 ml glass vials. A nonionic surfactant (Kinetic®) was included in the solution at a volume of 0.01% (v/v). The vials were then inserted into an automated electrostatic sprayer equipped with an atomizing nozzle for application to plants/insects. Lima bean plants (variety Sieva) were grown 2 plants to a pot and selected for treatment at the 1st true leaf stage. Test solutions were sprayed onto the foliage by an auto-mated electrostatic plant sprayer equipped with an atomizing spray nozzle. The plants were dried in the sprayer fume hood and then removed from the sprayer. Each pot was placed into perforated plastic bags with a zip closure. Ten to 11 armyworm larvae were placed into the bag and the bags zipped closed. Test plants were maintained in a growth room at about 25° C. and about 20-40% relative humidity for 4 days, avoiding direct exposure to fluorescent light (14:10 light:dark photoperiod) to prevent trapping of heat inside the bags. Mortality and reduced feeding were assessed 4 days after treatment, compared to untreated control plants.

[1] = system: Frankliniella occidentalis; assay: Western Flower Thrips (Frankliniella occidentalis) mortality on treated cotton leaf discs, comparative experiment; details: foliar, 48 h, thrips mortality at 2 DAT, read-out: mortality in comparison with untreated controls
Description: The active compounds were formulated by a Tecan liquid handler in 100% cyclohexanone as a 10,000 ppm solution supplied in tubes. The 10,000 ppm solution was serially diluted in 100% cyclohexanone to make interim solutions. These served as stock solutions for which final dilutions were made by the Tecan in 50% acetone:50% water (v/v) into 10 or 20 ml glass vials. A nonionic surfactant (Kinetic®) was included in the solution at a volume of 0.01% (v/v). The vials were then inserted into an automated electrostatic sprayer equipped with an atomizing nozzle for application to plants/insects. Small (˜2″ in height) cotton plants were sprayed with test compounds at concentrations ranging from 300 to 0.01 ppm in acetone/water through the automated VPS. After drying, cotton leaves were removed, and circular leaf discs (˜1 cm diameter) were punched from the treated surface and transferred to clean 20 mL scintillation vials. Ten Western flower thrips (FRANOC) were aspirated into each scintillation vial. The vials with the leaf discs and thrips were kept in an upright incubator at 25° C. and 50% relative humidity with a 14:10 light:dark photoperiod. Each treatment was replicated twice. Thrips mortality was assessed at 2 DAT (days after treatment), counting all thrips both dead and alive.

Row | SMILES | mortality at 800 ppm (Anthonomus grandis) | mortality at 800 ppm (Myzus persicae) | mortality at 800 ppm (Heliothis virescens; 800 ppm) | mortality at 2500 ppm (Heliothis virescens; 2500 ppm) | mortality at 1 ppm (Spodoptera eridania) | mortality at 100 ppm [1]
1 | O=C(NCc1cc(NC2=NOC(c3cc(Cl)cc(Cl)c3)(C(F)(F)F)C2)ccc1F)C1CC1 (centres unmarked) [I-8] | ≥ 75% | ≥ 75% | ≥ 75% | ≥ 75% | 80% | 100%
2 | N#CC1(NC(=O)c2cc(NC3=NOC(c4cc(Cl)cc(Cl)c4)(C(F)(F)F)C3)ccc2F)CC1 (centres unmarked) [I-30 of WO2022/171472, reference compound] | – | – | – | – | 0% | 19%

Reference: patent US20260008757A1, “N-(3-(AMINOMETHYL)-PHENYL)-5-(4-PHENYL)-5-(TRIFLUOROMETHYL)-4,5-DIHYDROISOXAZOL-3-AMINE DERIVATIVES AND SIMILAR COMPOUNDS AS PESTICIDES” (BASF SE, priority 2022, published 2026)
